{
  "source": "patent US10196361B2",
  "about": "“Sodium salt of uric acid transporter inhibitor and crystalline form thereof” (Jiangsu Hengrui Medicine Co., Ltd., priority 2015, dated 2019)",
  "key": {"solubility in water": {"test": "solubility in water", "type": "physicochemical"}, "[1]": {"test": "stability of crystal form I under lighting, heating and high humidity (purity by HPLC)", "type": "physicochemical", "details": "for stability: spread flat in the air, lighting, high temperature and high humidity", "description": "The sample of crystal form I prepared in Example 1 was spread flat in the air to test its stability under conditions of lighting (4500 Lux), heating (40° C., 60° C.), and high humidity (RH 75%, RH 90%). Samplings were carried out on Day 5 and Day 10."}, "[2]": {"test": "pharmacokinetic assay in rats", "type": "in vivo, Sprague-Dawley (SD) rats", "details": "for AUC(0-t) / half-life / MRT inf / Cmax: single; for AUC(0-t): read-out: Area under curve AUC0-t; for half-life: read-out: Half life t1/2 (converted); for MRT inf: read-out: Resistance time MRT0-∞; for Cmax: read-out: Plasma concentration Cmax", "description": "(§1) In the pharmacokinetic assay of the compound of Example 1 of the present invention, Sprague-Dawley (SD) rats were used as test animals. The compound of Example 1 was administrated intragastrically and intravenously to rats, then the drug concentration in the plasma at different time points was determined by a LC/MS/MS method to study the pharmacokinetic behavior and to evaluate the pharmacokinetic characteristics of the compound of the present invention in rats."}, "[3]": {"test": "pharmacokinetic assay in dogs", "type": "in vivo, Beagle dogs", "details": "for AUC(0-t) / half-life / MRT inf / Cmax: single; for AUC(0-t): read-out: Area under curve AUC0-t; for half-life: read-out: Half life t1/2 (converted); for MRT inf: read-out: Resistance time MRT0-∞; for Cmax: read-out: Plasma concentration Cmax", "description": "as §1, with “Beagle dogs” for “Sprague-Dawley (SD) rats”, “dogs,” for “rats,”, “dogs.” for “rats.”"}, "[4]": {"test": "special stability study of crystal form I (grinding, heating, pressing)", "type": "physicochemical", "from_the_text": "Crystal form I of the compound of formula (I) prepared according to the method of Example 1 was ground, heated and pressed."}, "[5]": {"details": "Sprague-Dawley, rat, plasma, intravenous, 3 mg/kg"}, "[6]": {"details": "Sprague-Dawley, rat, plasma, po, intragastric, 3 mg/kg"}, "[7]": {"details": "Sprague-Dawley, rat, plasma, po, intragastric, 9 mg/kg"}, "[8]": {"details": "Sprague-Dawley, rat, plasma, po, intragastric, 27 mg/kg"}, "[9]": {"details": "Beagle, dog, plasma, intravenous, 3 mg/kg"}, "[10]": {"details": "Beagle, dog, plasma, po, intragastric, 3 mg/kg"}, "[11]": {"details": "Beagle, dog, plasma, po, intragastric, 9 mg/kg"}, "[12]": {"details": "beagle, dog, plasma, po, intragastric, 27 mg/kg"}},
  "data": [
    {"molecule": "O=C([O-])C1(Sc2ccnc3ccc(Br)cc23)CCC1.[Na+]", "note": "[Example 1, sodium 1-((6-bromoquinolin-4-yl)thio)cyclobutane-1-carboxylate]", "values": [
      {"measurement": "solubility", "setting": "solubility in water", "result": 140, "unit": "µg/mL"},
      {"measurement": "purity as detected by HPLC", "setting": "[1]; 40° C., day 0", "result": 99.76, "unit": "%"},
      {"measurement": "purity as detected by HPLC", "setting": "[1]; 40° C., day 5", "result": 99.73, "unit": "%"},
      {"measurement": "purity as detected by HPLC", "setting": "[1]; 40° C., day 10", "result": 99.73, "unit": "%"},
      {"measurement": "purity as detected by HPLC", "setting": "[1]; 60° C., day 0", "result": 99.76, "unit": "%"},
      {"measurement": "purity as detected by HPLC", "setting": "[1]; 60° C., day 5", "result": 99.73, "unit": "%"},
      {"measurement": "purity as detected by HPLC", "setting": "[1]; 60° C., day 10", "result": 99.71, "unit": "%"},
      {"measurement": "purity as detected by HPLC", "setting": "[1]; Lighting (4500 Lux), day 0", "result": 99.76, "unit": "%"},
      {"measurement": "purity as detected by HPLC", "setting": "[1]; Lighting (4500 Lux), day 5", "result": 99.75, "unit": "%"},
      {"measurement": "purity as detected by HPLC", "setting": "[1]; Lighting (4500 Lux), day 10", "result": 99.70, "unit": "%"},
      {"measurement": "purity as detected by HPLC", "setting": "[1]; RH 75%, day 0", "result": 99.76, "unit": "%"},
      {"measurement": "purity as detected by HPLC", "setting": "[1]; RH 75%, day 5", "result": 99.74, "unit": "%"},
      {"measurement": "purity as detected by HPLC", "setting": "[1]; RH 75%, day 10", "result": 99.74, "unit": "%"},
      {"measurement": "purity as detected by HPLC", "setting": "[1]; RH 90%, day 0", "result": 99.76, "unit": "%"},
      {"measurement": "purity as detected by HPLC", "setting": "[1]; RH 90%, day 5", "result": 99.74, "unit": "%"},
      {"measurement": "purity as detected by HPLC", "setting": "[1]; RH 90%, day 10", "result": 99.73, "unit": "%"},
      {"measurement": "stability", "setting": "[1]; listed as crystal form I", "result": "good stability"},
      {"measurement": "stability", "setting": "[1]; listed as crystal form I of the compound of formula (I)", "result": "stable"},
      {"measurement": "oral absorption", "setting": "[2]", "result": "well absorbed"},
      {"measurement": "AUC(0-t)", "setting": "[2]; [5]", "result": "56000 ± 19600", "unit": "ng·h/mL"},
      {"measurement": "half-life", "setting": "[2]; [5]", "result": "5.5 ± 1.88", "unit": "h"},
      {"measurement": "MRT inf", "setting": "[2]; [5]", "result": "6.18 ± 1.33", "unit": "h"},
      {"measurement": "AUC(0-t)", "setting": "[2]; [6]", "result": "41500 ± 27200", "unit": "ng·h/mL"},
      {"measurement": "half-life", "setting": "[2]; [6]", "result": "4.58 ± 0.85", "unit": "h"},
      {"measurement": "Cmax", "setting": "[2]; [6]", "result": "10500 ± 7900", "unit": "ng/mL"},
      {"measurement": "MRT inf", "setting": "[2]; [6]", "result": "6.15 ± 1.51", "unit": "h"},
      {"measurement": "AUC(0-t)", "setting": "[2]; [7]", "result": "119000 ± 65000", "unit": "ng·h/mL"},
      {"measurement": "half-life", "setting": "[2]; [7]", "result": "5.07 ± 2.08", "unit": "h"},
      {"measurement": "Cmax", "setting": "[2]; [7]", "result": "22000 ± 11000", "unit": "ng/mL"},
      {"measurement": "MRT inf", "setting": "[2]; [7]", "result": "7.11 ± 1.75", "unit": "h"},
      {"measurement": "AUC(0-t)", "setting": "[2]; [8]", "result": "336000 ± 241000", "unit": "ng·h/mL"},
      {"measurement": "half-life", "setting": "[2]; [8]", "result": "4.59 ± 0.5", "unit": "h"},
      {"measurement": "Cmax", "setting": "[2]; [8]", "result": "38800 ± 17000", "unit": "ng/mL"},
      {"measurement": "MRT inf", "setting": "[2]; [8]", "result": "7.09 ± 1.33", "unit": "h"},
      {"measurement": "bioavailability", "setting": "[2]; Sprague-Dawley, rat, plasma, po, single intragastric 3 mg/kg, from mean AUC0-t, read-out: absolute bioavailability", "result": 74.1, "unit": "%"},
      {"measurement": "oral absorption", "setting": "[3]", "result": "well absorbed"},
      {"measurement": "AUC(0-t)", "setting": "[3]; [9]", "result": "14500 ± 3600", "unit": "ng·h/mL"},
      {"measurement": "half-life", "setting": "[3]; [9]", "result": "4.51 ± 2.25", "unit": "h"},
      {"measurement": "MRT inf", "setting": "[3]; [9]", "result": "3.57 ± 1.89", "unit": "h"},
      {"measurement": "AUC(0-t)", "setting": "[3]; [10]", "result": "8630 ± 3440", "unit": "ng·h/mL"},
      {"measurement": "half-life", "setting": "[3]; [10]", "result": "3.49 ± 1.2", "unit": "h"},
      {"measurement": "Cmax", "setting": "[3]; [10]", "result": "8450 ± 2100", "unit": "ng/mL"},
      {"measurement": "MRT inf", "setting": "[3]; [10]", "result": "3.03 ± 1.03", "unit": "h"},
      {"measurement": "AUC(0-t)", "setting": "[3]; [11]", "result": "37500 ± 10800", "unit": "ng·h/mL"},
      {"measurement": "half-life", "setting": "[3]; [11]", "result": "3.83 ± 2", "unit": "h"},
      {"measurement": "Cmax", "setting": "[3]; [11]", "result": "27600 ± 4800", "unit": "ng/mL"},
      {"measurement": "MRT inf", "setting": "[3]; [11]", "result": "3.48 ± 1.36", "unit": "h"},
      {"measurement": "AUC(0-t)", "setting": "[3]; [12]", "result": "105000 ± 30900", "unit": "ng·h/mL"},
      {"measurement": "half-life", "setting": "[3]; [12]", "result": "4.31 ± 1.6", "unit": "h"},
      {"measurement": "Cmax", "setting": "[3]; [12]", "result": "78600 ± 22000", "unit": "ng/mL"},
      {"measurement": "MRT inf", "setting": "[3]; [12]", "result": "3.38 ± 0.96", "unit": "h"},
      {"measurement": "bioavailability", "setting": "[3]; beagle, dog, plasma, po, single intragastric 3 mg/kg, from mean AUC0-t, read-out: absolute bioavailability", "result": 59.5, "unit": "%"},
      {"measurement": "DSC peak after treatment", "setting": "[4]; Grinding treatment for 10 minutes", "result": ">300", "unit": "°C"},
      {"measurement": "DSC peak after treatment", "setting": "[4]; Heating treatment for 3 hours at 80° C.", "result": ">300", "unit": "°C"},
      {"measurement": "DSC peak after treatment", "setting": "[4]; Pressing treatment", "result": ">300", "unit": "°C"},
      {"measurement": "stability of the crystal form", "setting": "[4]; grinding, heating and pressure", "result": "stable"}
    ]},
    {"molecule": "O=C(O)C1(Sc2ccnc3ccc(Br)cc23)CCC1", "note": "[1-((6-bromoquinolin-4-yl)thio)cyclobutane-1-carboxylic acid, reference compound]", "values": [
      {"measurement": "solubility in water", "setting": "solubility in water", "result": "almost insoluble"}
    ]}
  ]
}
